Data from the supplement of paper PMC10307832.

Assays:
Assay in all cases: relative viability (nuclei count vs DMSO), 5 days (fraction); higher = more cells survive
[1] = compound: CC1=C(C=CC(=C1)[N+](=O)[O-])NS(=O)(=O)C2=C(C=CC(=C2)Cl)Cl [FH535] + Cc1nc(NC(=O)N2CCC[C@H]2C(N)=O)sc1-c1ccnc(C(C)(C)C(F)(F)F)c1 [Alpelisib] (partner 2 µM)
How it was run: (§1)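 Relative viability was taken as the ratio of nuclei in treated wells to nuclei in vehicle wells. Lung cancer cell lines in 1536-well plates received compounds by pin tool one day after seeding, either one drug alone or a fixed anchor-drug dose plus five library-drug doses (not always all listed) in √10 steps. Nuclei were counted on 4× images after 5 days of treatment, and values are medians of duplicate plates.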

[2] = compound: CC1=C(C=CC(=C1)[N+](=O)[O-])NS(=O)(=O)C2=C(C=CC(=C2)Cl)Cl [FH535] + CS(=O)(=O)CCNCc1ccc(-c2ccc3ncnc(Nc4ccc(OCc5cccc(F)c5)c(Cl)c4)c3c2)o1 [Lapatinib] (partner 2 µM)
How it was run: as §1

[3] = compound: CC1=C(C=CC(=C1)[N+](=O)[O-])NS(=O)(=O)C2=C(C=CC(=C2)Cl)Cl [FH535] + N=C(N)NC(=N)NCCc1ccccc1 [Phenformin] (partner 250 µM)
How it was run: as §1

[4] = compound: CC1=C(C=CC(=C1)[N+](=O)[O-])NS(=O)(=O)C2=C(C=CC(=C2)Cl)Cl [FH535] + CS(=O)(=O)N1CCN(Cc2cc3nc(-c4cccc5[nH]ncc45)nc(N4CCOCC4)c3s2)CC1 [Pictilisib] (partner 1 µM)
How it was run: as §1

[5] = compound: CC1=C(C=CC(=C1)[N+](=O)[O-])NS(=O)(=O)C2=C(C=CC(=C2)Cl)Cl [FH535] + Cc1nc(Nc2ncc(C(=O)Nc3c(C)cccc3Cl)s2)cc(N2CCN(CCO)CC2)n1 [Dasatinib] (partner 0.075 µM)
How it was run: as §1

Cell Line	relative viability ([1]; first compound 0.04 µM)	relative viability ([1]; first compound 0.1265 µM)	relative viability ([1]; first compound 0.4 µM)	relative viability ([1]; first compound 1.265 µM)	relative viability ([2]; first compound 0.04 µM)	relative viability ([2]; first compound 0.1265 µM)	relative viability ([2]; first compound 0.4 µM)	relative viability ([2]; first compound 1.265 µM)	relative viability ([3]; first compound 0.04 µM)	relative viability ([3]; first compound 0.1265 µM)	relative viability ([3]; first compound 0.4 µM)	relative viability ([3]; first compound 1.265 µM)	relative viability ([4]; first compound 0.04 µM)	relative viability ([4]; first compound 0.1265 µM)	relative viability ([4]; first compound 0.4 µM)	relative viability ([4]; first compound 1.265 µM)	relative viability ([5]; first compound 0.04 µM)	relative viability ([5]; first compound 0.1265 µM)	relative viability ([5]; first compound 0.4 µM)	relative viability ([5]; first compound 1.265 µM)
NCI-H2405	0.685	0.843	0.84	0.585	0.934	1.13	0.963	0.734	0.395	0.378	0.344	0.331	0.329	0.447	0.425	0.422	0.202	0.243	0.232	0.221
NCI-H3122	0.715	0.782	0.829	0.745	1.01	0.978	0.999	0.89	0.374	0.344	0.286	0.164	0.583	0.585	0.57	0.564	0.703	0.782	0.713	0.719
PC-3 [JPC-3]	1	1.07	0.951	0.686	0.405	0.39	0.444	0.39	0.448	0.405	0.37	0.372	0.746	0.902	0.698	0.47	1.05	0.812	0.837	0.749
PC-14	0.88	0.967	0.94	0.925	0.365	0.318	0.376	0.313	0.571	0.708	0.516	0.331	0.73	0.743	0.709	0.655	0.282	0.287	0.251	0.245
RERF-LC-KJ	0.739	0.822	0.921	0.751	0.916	0.884	0.824	0.714	0.38	0.429	0.406	0.308	0.49	0.534	0.478	0.392	0.845	0.805	0.747	0.502
SK-LU-1	0.913	1.1	0.949	0.616	0.759	0.778	0.609	0.362	0.563	0.622	0.491	0.305	0.503	0.568	0.487	0.4	0.191	0.192	0.182	0.194
SK-MES-1	0.865	0.941	0.855	0.881	0.493	0.448	0.422	0.412	0.71	0.614	0.553	0.385	0.329	0.384	0.365	0.411	0.407	0.47	0.343	0.292
SW 1573	0.726	0.693	0.623	0.689	1	1.19	1.18	0.98	0.387	0.372	0.307	0.163	0.485	0.612	0.471	0.465	0.42	0.414	0.344	0.454
UMC-11	0.939	1.13	0.96	0.857	0.858	0.994	0.885	0.765	0.289	0.378	0.28	0.211	0.749	0.619	0.726	0.787	0.446	0.454	0.416	0.422
